From patent US20260297060A1, “COMPOUNDS FOR THE DEGRADATION OF MUTANT BRAF” (C4 THERAPEUTICS, INC., priority 2023, published 2026)

Assays:
[1] = tested on: A375 human melanoma xenografts; experiment: In vivo therapeutic efficacy in A375 human melanoma xenografts (tumor volume, T/C, TGI), Example 14; set-up: species or system human tumor in female BALB/c nude mice; settings: for Tumor volume: 100 mg/kg p.o. QD x 21 days
Description: Agents were tested in the A375 human melanoma xenografts. Compound 26 and Compound 141 were administered to BALB/c nude mice bearing A375 tumors from PG-DO and dosed via PO twice a day (BID) or third a day (TIP) or dosed P daily (QD) from PG-D. Dabrafenib was administered to BALB/c nude mice bearing A375 tumors from PG-D1 and dosed via P daily (QD). Compound 26 was dosed at 1.5 mg/kg (QD), 2 mg/kg (TID), 3 mg/kg (BID), 6 mg/kg (QD) and 10 mg/kg (BID) for 21 days. Compound 141 was dosed at 0.75 mg/kg (BID), 1 mg/kg (TID), 1.5 mg/kg (BID), 3 mg/kg (QD) and 5 mg/kg (BID) for 21 days. Dabrafenib was dosed at 100 mg/kg for 21 days. This study was non-GLP.
One hundred and thirty-eight female BALB/c nude Mus Musculus mice procured from Shanghai Lingchang Biological Science and Technology Co., LTD between the ages of six to eight weeks and with body weight between eighteen and twenty-two grams were used for the study. A spare mouse was also procured.
(§1) The A375 tumor cells were maintained in vitro in DMEM medium supplemented with 10% fetal bovine serum and 1% Penicillin-Streptomycin at 37° C. in an atmosphere of 5% CO2 in air. The tumor cells were routinely sub-cultured twice weekly. The cells growing in an exponential growth phase were harvested and counted for tumor inoculation.
Each mouse was inoculated subcutaneously at the right flank with A375 cells (5×10^6) in 0.2 mL of PBS supplemented with Matrigel (PBS: Matrigel=1:1) for tumor development. Animals were grouped for efficacy study on day 15 after tumor inoculation when the average tumor volume reached 220 mm^3. The test articles administration and the animal numbers in each group are shown in the above experimental Table 75.
At the time of routine monitoring, the animals were checked daily for any effects of tumor growth and treatments on normal behavior such as mobility, food and water consumption (by looking only), body weight gain/loss (body weights were measured twice weekly), eye/hair matting and any other abnormal effect as stated in the protocol. Death and observed clinical signs were recorded on the basis of the numbers of animals within each subset.
(§2) Prior to the onset of drug treatment, mice were measured for tumor size in two dimensions using a caliper, and the tumor volume (mm^3) was calculated using formula V=0.5 a×b^2 where a and b are the long and short diameters of the tumor in mm, respectively. Mice were randomized into different treatment groups based on the tumor volume.
(§3) The major endpoint was to see if the tumor growth could be delayed or mice could be cured. The tumor size was then used for calculations of T/C value. The T/C value (in percent) is an indication of antitumor effectiveness; T and C are the mean volumes of the treated and control groups, respectively on specified day.
(§4) TGI was calculated for each group using the formula: TGI (%)=[1−(Ti−T0)/(Ci−C0)]×100; Ti is the average tumor volume of a treatment group on a given day, T0 is the average tumor volume of the treatment group on the day of treatment start, Ci is the average tumor volume of the vehicle control group on the same day with Ti, and C0 is the average tumor volume of the vehicle group on the day of treatment start.
A one-way ANOVA followed by Dunnett's multiple comparison test was performed to compare tumor volume among vehicle group (Group 1) and treatment groups (Group 2-Group 12). All data were analyzed using GraphPad Prism, ns indicates p>0.05, * indicates p<0.05, ** indicates p<0.01, *** indicates p<0.001 and **** indicates p<0.0001.
Tumor growth inhibition of Compound 26, Compound 141 and dabrafenib in the treatment of female BALB/c nude mice bearing A375 xenografts was calculated based on tumor volume measured on […]. TGI and T/C were calculated respectively and the data are detailed in Table 82.

[2] = tested on: A375 human melanoma xenografts; experiment: Example 9 efficacy study Part I in A375 human melanoma xenografts (tumor volume, T/C, TGI); assay type: in vivo, BALB/c nude mice; settings: 100 mg/kg, p.o., QD × 14 days
Description: For efficacy study Part I, agents were tested in the A375 human melanoma xenografts. Compound 218 and Compound 157 were administered to BALB/c nude mice bearing A375 xenografts from day 0 and dosed twice a day (BID) for 14 days. Compound 218 and Compound 157 were dosed at 10 mg/kg via p.o.. Dabrafenib was administered from day 1 daily (QD) for 14 days and dosed at 100 mg/kg via p.o..
as §1, with “[…]” for “10%”, “subcultured” for “sub-cultured”
Each mouse was inoculated subcutaneously at the right flank with A375 cells (5×10^6) in 0.2 mL of PBS supplemented with Matrigel (PBS: Matrigel=1:1) for tumor development. Animals were grouped for the treatment when the average tumor volume reached 243 mm^3 for efficacy study part I and 413 mm^3 for the PK and PD study part I on day 15, and 271 mm^3 for efficacy part II and 443 mm^3 for the PK and PD part II on day 18, and 463 mm^3 for the PK and PD study part III on day 21. The test articles administration and the animal numbers in each group are shown in the above experimental tables.
as §2, §3
as §4, with “day, To” for “day, T0”

[3] = 100 mg/kg, p.o., QD × 21 days, PG-D21

CC(C)(C)c1nc(-c2cccc(NS(=O)(=O)c3c(F)cccc3F)c2F)c(-c2ccnc(N)n2)s1 [Dabrafenib, dabrafenib, reference compound]
Tumor volume ([1]; day 0, mean ± SEM): 220 ± 15 mm^3
Tumor volume ([1]; day 4, mean ± SEM): 367 ± 24 mm^3
Tumor volume ([1]; day 7, mean ± SEM): 421 ± 28 mm^3
Tumor volume ([1]; day 11, mean ± SEM): 560 ± 38 mm^3
Tumor volume ([1]; day 14, mean ± SEM): 756 ± 54 mm^3
Tumor volume ([1]; day 18, mean ± SEM): 1031 ± 79 mm^3
Tumor volume ([1]; day 21, mean ± SEM): 1095 ± 86 mm^3
Tumor volume ([1]; day 25 (dosing-free regrowth), mean ± SEM): 1007 ± 137 mm^3
Tumor volume ([1]; day 28 (dosing-free regrowth), mean ± SEM): 1366 ± 209 mm^3
Tumor volume ([1]; day 32 (dosing-free regrowth), mean ± SEM): 1679 ± 323 mm^3
Tumor volume ([1]; day 35 (dosing-free regrowth), mean ± SEM): 1711 ± 245 mm^3
Tumor volume ([1]; day 39 (dosing-free regrowth), mean ± SEM): 2116 ± 279 mm^3
Tumor volume ([1]; day 42 (dosing-free regrowth), mean ± SEM): 2634 ± 337 mm^3
Tumor volume ([1]; day 46 (dosing-free regrowth), mean ± SEM): 2535 ± 321 mm^3
Tumor volume ([1]; day 49 (dosing-free regrowth), mean ± SEM): 3163 ± 478 mm^3
Tumor volume ([1]; day 53 (dosing-free regrowth)): 3001 mm^3
Tumor Size on PG-D21 (Mean ± SEM) ([1]; 100 mg/kg p.o. QD × 21 days): 1095 ± 86 mm^3
T/C [1, 3]: 58.1%
TGI [1, 3]: 47.4%
Tumor Volume Trace Over Time ([2]; Day 0, Mean ± SEM): 243 ± 4 mm^3
Tumor Volume Trace Over Time ([2]; Day 3, Mean ± SEM): 370 ± 17 mm^3
Tumor Volume Trace Over Time ([2]; Day 7, Mean ± SEM): 445 ± 13 mm^3
Tumor Volume Trace Over Time ([2]; Day 10, Mean ± SEM): 475 ± 23 mm^3
Tumor Volume Trace Over Time ([2]; Day 14, Mean ± SEM): 521 ± 31 mm^3
Tumor Size on PG-D14 ([2]; Mean ± SEM): 521 ± 31 mm^3
TGI (Tumor Growth Inhibition) ([2]; PG-D14): 74.65%
T/C ([2]; PG-D14, treated/control average tumor volume): 38.87%
